According to patent publication US8946436B2, “Oxazolidinone compounds and their uses in preparation of antibiotics” (Sichuan Gooddoctor Pharmaceutical Group Co., Ltd., priority 2011, dated 2015):
In brackets after ≈: the same amount, converted by molar mass. Read-outs that look alike come from different tables or passages of the source.

What was measured:
Assay type in all cases: cell-based
[1] = tested on: Enterococcus faecium-sensitive vancomycin; assay: MIC against clinically isolated strains, vancomycin sensitive Enterococcus faecium; details: Enterococcus faecium-sensitive vancomycin (12 strains)
Source text: Standard strains, including Staphylococcus aureus ATCC29213, S. pneumoniae ATCC49619, E. faecalis ATCC29212, are all available from the American Type Culture Collection.
Clinically isolated strains: There are total 120 clinical strains of gram-positive bacterium including: 37 strains of Staphylococcus aureus (consisting of 14 strains of methicillin sensitive Staphylococcus aureus MSSA and 23 strains of methicillin resistant Staphylococcus aureus MRSA); 27 strains of Streptococcus pneumoniae (consisting of 13 strains of penicillin sensitive Streptococcus pneumoniae PSSP and 14 strains of penicillin insensitive or resistant Streptococcus pneumoniae PISP+PRSP); 15 strains of Streptococcus pyogenes; 17 strains of Streptococcus agalactiae; 24 stains of Enterococcus faecium (consisting of 12 strains of vancomycin sensitive Enterococcus faecium and 12 strains of vancomycin resistant Enterococcus faecium).
(2) Tested compounds: Compound 13f was prepared by the methods above, with potency of over 98%; Linezolid was purchased from Pfizer, with potency of 100%.
Staphylococcus and Enterococcus faecium were incubated in Mueller-Hinton agar medium (MHA medium) at 35° C. for 16-20 h; S. pneumoniae was incubated in Cation-Adjusted Mueller-Hinton Broth medium (CAMHB medium) supplemented with 2.5-5.5% (v/v) lysed horse blood (LHB) at 35° C. for 20-24 h; and Streptococcus were incubated in sheep blood-containing medium (prepared by addition of 5% defibrinated sheep blood into MHA media) at 35° C. for 20-24 h in 5% CO2 environment (CO2 incubator). Before test of the compound activity, each stock of the bacteria strains was activated and colonized in the following manner: the stock was transferred and cultured in a liquid culture medium, the culture liquid was smeared onto an agar plate with an inoculating loop to obtain bacterial colonies on the plate after incubation, and then a colony of the bacteria was chose to be suspended into the liquid culture medium for performing the test of compound activity. As a result, fresh bacteria cells were applied to the test. The standard strains were used as sensitive bacterium to control the quality of the experiments, and a plate or tube containing no antibacterial compounds is used as a blank control for the growth of test strains.
The minimal inhibitory concentration (MIC) of the test compounds on the strains of Streptococcus pneumoniae was determined by a standard broth macrodilution method, while the MIC of the test compounds on the other bacteria stains was determined by standard agar double dilution methods. The concentration of the test compounds was in the range of 32 mg/L-0.016 mg/L. The bacterial suspensions to be tested were inoculated by a multipoint inoculator, and the inoculation amount at each point is 10^4 CFU. The MIC of the test compound to each strain of the bacteria was determined.

HEK-293 = assay: Cytotoxicity experiment (MTT), HEK-293; details: HEK-293 normal cells
Procedure: (1) Inoculating cells: Experimental cells in the growth of logarithmic phase were collected and suspended. The cell concentration of the suspension was adjusted so that they could be inoculated into the wells of 96-well micro plate at a density between 10^3-10^4 cells per well (200 μl per well). (2) Culturing cells: The cells were cultured at normal conditions for 3 days and then exposed to 50 uM compounds for test. (3) Coloring reaction: At 24 h, 48 h and 72 h after the cells being exposed to the compounds for test, 200 μl culture medium containing 20 μl MTT solution (5 mg/ml) was added into each well, and the well was further incubated at 37° C. for 2 hours to terminate the incubation. After the incubation, the supernatants were removed from the wells. In the event there were suspended cells in the wells, centrifugation should be performed before removal of supernatant from the wells. After the removal, 150 μl DMSO was added to each well and mixed thoroughly by agitation for 10 mins to fully dissolve crystals. (4) Ascertainment of colorimetry: The absorbance value at 490 nm of each well was determined by Enzyme-linked immunosorbent Monitor. The growth curve of the experimental cells was plotted by taking time as x-coordinate and absorbance value as y-coordinate. In addition, an inhibition ratio could be calculated in accordance with the following formula: Inhibition ratio=(absorbance value of control group-absorbance value of administering group)/absorbance value of control group×100%.

S. agalactiae = assay: In vitro antibacterial activity (MIC), S. agalactiae; details: S. agalactiae (5 strains)
Procedure: (§1) The test strain was inoculated into the liquid medium and cultured at 37° C. for 16-18 h. The culture liquid and MH medium were put into two blank wells of a 96-well plate, respectively. Then, the absorptions thereof were measured by a Microplate reader. The difference between the absorption values of the culture liquid and MH medium is the adsorption of the bacteria. The concentration of the culture liquid can be calculated according to the formula of 1OD=50 million CFU/mL. The culture liquid was diluted with the MH bouillon culture medium to 5000 CFU/mL for further use.
(§2) Compounds 12a, 13 and 14 were dissolved in DMSO to 1 mg/mL, and then filtered with a 0.22 μm filter to obtain the compound solutions. And then they were gradually diluted to a desired concentration (10× final concentration) with the liquid medium, so as to obtain a series of dilutions. The final concentration grade of the dilutions of each tested compound consists of 14 concentrations, which includes: 0.03125 μg/mL, […], 0.125 μg/mL, 0.25 μg/mL, […], 1 μg/mL, 2 μg/mL, 4 μg/mL, 8 μg/mL, 16 μg/mL, 32 μg/mL, 64 μg/mL, 128 μg/mL and 256 μg/mL.
(§3) 10 μL of each of the compound dilutions above was added into a well of a 96-well plate. 90 μL of the culture liquid (5000 CFU/mL) was added into each of the wells, respectively, mixed with the dilutions to render the tested compound concentration to the final concentration. The resulted mixture was incubated at 37° C. for 16-18 h, and then the OD630 thereof was measured. A culture liquid free of the tested compounds is used as a blank control, and three parallel tests with the same concentration of each compound were performed. The minimum inhibitory concentration (MIC) of each compound on the standard strain of Staphylococcus Aureus and other test strains was determined. Specifically, among the culture liquid contained in the wells of the micro-plate, the first three lowest concentrations under which growth of the test strains could be observed were chose for further evaluation of the MIC. A culture liquid free of tested compounds was used as a blank control. Each of the culture liquids was homogenized independently, and then was diluted with a sterile saline. Each of the diluted culture liquids was plated onto a MH bouillon plate and incubated at 37° C. for 20 h in incubator. After the incubation, the number of the colonies on each plate was counted. As compared with the blank control group, the lowest concentration of each of the test compound groups, at which 80% reduction in the colony number of the strains was achieved, was recorded as the MIC.

E. faecalis = assay: In vitro antibacterial activity (MIC), E. faecalis; details: E. faecalis (7 strains)
Procedure: as §1, §2, §3

Structure (SMILES)	MICmode [1]	MICrange [1]	cytotoxicity at 50 µM (HEK-293; Homo sapiens, HEK293, 48 h, read-out: Inhibition ratio)	MIC (S. agalactiae; Streptococcus agalactiae, read-out: MIC)	MIC (E. faecalis; Enterococcus faecalis, read-out: MIC)	MIC50 [1]	MIC90 [1]	Inhibition ratio (HEK-293; 50 uM, 48 h)	MIC (S. agalactiae)	MIC (E. faecalis)
CC(=O)NC[C@H]1CN(c2ccc(-n3cc(-c4ccccn4)cn3)c(F)c2)C(=O)O1 [Compound 13f, (S)-N-((3-(3-fluoro-4-(4-(pyridin-2-yl)-1H-pyrazol-1-yl)phenyl)-2-oxooxazolidin-5-yl)methyl)acetamide]	1 µg/L	1 to 2 µg/L	2.7%	0.25 to 2 µg/mL (≈ 0.632 to 5.06 µM)	0.5 to 2 µg/mL (≈ 1.26 to 5.06 µM)	–	–	–	–	–
CC(=O)NC[C@H]1CN(c2ccc(N3CCOCC3)c(F)c2)C(=O)O1 [Linezolid, reference compound]	1 µg/L	1 to 2 µg/L	–	–	–	1 µg/L (≈ 0.00296 µM)	1 µg/L (≈ 0.00296 µM)	>50%	4 to 32 µg/mL	4 to 32 µg/mL
